Experimental data from patent US11180462B2, “Microbiocidal oxadiazole derivatives” (SYNGENTA PARTICIPATIONS AG, priority 2015, dated 2021).

Assays:
[1] = system: Glomerella lagenarium (Colletotrichum lagenarium); experiment: Fungicidal activity against Glomerella lagenarium (Colletotrichum lagenarium) liquid culture / cucumber / preventative (anthracnose); format: cell-based; conditions: Colletotrichum orbiculare; 20 ppm in the applied formulation; liquid culture (PDB), growth inhibition measured photometrically after 3 to 4 days; compared to untreated control; read-out: disease control
In short: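 Photometric read-out of fungal growth after 2–7 days, expressed as percent antifungal activity versus untreated check. Cryo-stored conidia in PDB; compound at 20 ppm; dark, 24 °C, 96% RH.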

[2] = system: Puccinia recondita f. Sp. Tritici; experiment: Fungicidal activity against Puccinia recondita f. sp. tritici / wheat / leaf disc preventative (brown rust); format: in vivo; conditions: foliar, 200 ppm in the applied formulation, wheat leaf segments, preventative, compared to untreated control leaf disks, read-out: disease control
In short: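 Preventative leaf-segment test, wheat cv. Kanzler on water agar. Spray compound at 200 ppm, inoculate with spores 1 day later; 19° C., 75% rh, 12/12 h light. Read-out: % disease control vs untreated, 7 to 9 days after application.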

[3] = system: Puccinia recondita f. Sp. Tritici; experiment: Fungicidal activity against Puccinia recondita f. sp. tritici / wheat / leaf disc curative (brown rust); format: in vivo; conditions: foliar, 24 h, 200 ppm in the applied formulation, wheat leaf segments, curative (applied 1 day after inoculation), compared to untreated control leaf disks, read-out: disease control
In short: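 Curative leaf-segment test: compound diluted in water applied 1 day after spore inoculation of cv. Kanzler wheat segments on agar. Conditions 19° C, 75% RH, 12 h/12 h light cycle. Read-out: % disease control relative to untreated check, 6 to 8 days after application.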

Phakopsora Pachyrhizi = experiment: Fungicidal activity against Phakopsora pachyrhizi / soybean / leaf disc preventative (Asian soybean rust); format: in vivo; conditions: foliar, 200 ppm in the applied formulation, soybean leaf disks, compared to untreated control leaf disks, read-out: disease control
In short: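 Preventative soybean leaf-disc test: discs on water agar sprayed with diluted formulated compound, inoculated one day later with spores on the lower surface. Held 24–36 h dark at 20°C, 75% rh, then 12 h light/day; percent disease control versus untreated discs scored 12–14 days after application.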

CCCN(Cc1ccc(-c2noc(C(F)(F)F)n2)cc1)C(=O)C(CC)COC (stereo not drawn) [Compound 1.661, 2-(methoxymethyl)-N-propyl-N-[[4-[5-(trifluoromethyl)-1,2,4-oxadiazol-3-yl]phenyl]methyl]-butanamide]
≥ 80%: inhibition of growth at 20 ppm [1] | pest or weed control at 200 ppm [2] | pest or weed control at 200 ppm [3] | pest or weed control at 200 ppm (Phakopsora Pachyrhizi)

C#CCN(Cc1ccc(-c2noc(C(F)(F)F)n2)cc1)C(=O)CCC [Compound 1.165, N-prop-2-ynyl-N-[[4-[5-(trifluoromethyl)-1,2,4-oxadiazol-3-yl]phenyl]methyl]-butanamide]
≥ 80%: inhibition of growth at 20 ppm [1] | pest or weed control at 200 ppm [2] | pest or weed control at 200 ppm [3] | pest or weed control at 200 ppm (Phakopsora Pachyrhizi)

O=C(CC(F)(F)F)N(Cc1ccc(-c2noc(C(F)(F)F)n2)cc1)C1CC1 [Compound 1.111, N-cyclopropyl-3,3,3-trifluoro-N-[[4-[5-(trifluoromethyl)-1,2,4-oxadiazol-3-yl]phenyl]methyl]-propanamide]
≥ 80%: inhibition of growth at 20 ppm [1] | pest or weed control at 200 ppm [2] | pest or weed control at 200 ppm [3] | pest or weed control at 200 ppm (Phakopsora Pachyrhizi)

C=CCCC(=O)N(Cc1ccc(-c2noc(C(F)(F)F)n2)cc1)C1CC1 [Compound 1.91, N-cyclopropyl-N-[[4-[5-(trifluoromethyl)-1,2,4-oxadiazol-3-yl]phenyl]methyl]-pent-4-enamide]
≥ 80%: inhibition of growth at 20 ppm [1] | pest or weed control at 200 ppm [2] | pest or weed control at 200 ppm [3] | pest or weed control at 200 ppm (Phakopsora Pachyrhizi)

CCC(C)C(=O)N(CCOC)Cc1ccc(-c2noc(C(F)(F)F)n2)cc1 (stereo not drawn) [Compound 1.350, N-(2-methoxyethyl)-2-methyl-N-[[4-[5-(trifluoromethyl)-1,2,4-oxadiazol-3-yl]phenyl]methyl]-butanamide]
≥ 80%: inhibition of growth at 20 ppm [1] | pest or weed control at 200 ppm [2] | pest or weed control at 200 ppm [3] | pest or weed control at 200 ppm (Phakopsora Pachyrhizi)

C=C(C)C(=O)N(Cc1ccc(-c2noc(C(F)(F)F)n2)cc1)OC [Compound 1.45, N-methoxy-2-methyl-N-[[4-[5-(trifluoromethyl)-1,2,4-oxadiazol-3-yl]phenyl]methyl]-prop-2-enamide]
≥ 80%: inhibition of growth at 20 ppm [1] | pest or weed control at 200 ppm [2] | pest or weed control at 200 ppm [3] | pest or weed control at 200 ppm (Phakopsora Pachyrhizi)

CCC(=O)N(Cc1ccc(-c2noc(C(F)(F)F)n2)c(F)c1F)OC [Compound 1.585, N-[[2,3-difluoro-4-[5-(trifluoromethyl)-1,2,4-oxadiazol-3-yl)phenyl]methyl)-N-methoxy-propanamide]
≥ 80%: inhibition of growth at 20 ppm [1] | pest or weed control at 200 ppm [2] | pest or weed control at 200 ppm [3] | pest or weed control at 200 ppm (Phakopsora Pachyrhizi)

CCCN(Cc1ccc(-c2noc(C(F)(F)F)n2)cc1)C(=O)CCOC [Compound 1.655, 3-methoxy-N-propyl-N-[[4-[5-(trifluoromethyl)-1,2,4-oxadiazol-3-yl]phenyl]methyl]-propanamide]
≥ 80%: inhibition of growth at 20 ppm [1] | pest or weed control at 200 ppm [2] | pest or weed control at 200 ppm [3] | pest or weed control at 200 ppm (Phakopsora Pachyrhizi)

C=CCN(Cc1ccc(-c2noc(C(F)(F)F)n2)cc1)C(=O)C1OCCO1 [Compound 1.493, N-allyl-N-[[4-[5-(trifluoromethyl)-1,2,4-oxadiazol-3-yl]phenyl]methyl]-1,3-dioxolane-2-carboxamide]
≥ 80%: inhibition of growth at 20 ppm [1] | pest or weed control at 200 ppm [2] | pest or weed control at 200 ppm [3] | pest or weed control at 200 ppm (Phakopsora Pachyrhizi)
